# “And” between values parts separate entries of the source, which are not always exact repeats. Identical values can stand only once.
# What was measured:
# Dirofilaria immitis = test: D. immitis L3 infection of NSG mice (FR3 Missouri strain or strain not stated), treatment, recovery and count of worms at necropsy; format: in vivo; conditions: for % Rec (percent of the original 50 Di recovered): 1 mg/kg
# [1] = system: Dirofilaria immitis (Merial worms, UC strain); test: D. immitis L3 infection of NSG mice with Merial worms / UC strain, treatment, recovery and count of worms; format: in vivo; conditions: for % Rec, Mean / Mean % Rec: group mean; for Mean Survival / Survival, Mean: in vivo
# [2] = NSG mice, 50 Di L3 Merial worms, 1 mg/kg on Days 1, 15, and 30, recovery Days 41 to 43
# [3] = NSG mice, 50 Di L3 UC strain, High Dose 2 mg/kg on Days 1, 15, and 30, recovery Days 41 and 42
# [4] = NSG mice, 50 Di L3 UC strain, Normal Dose 1 mg/kg on Days 1, 15, and 30, recovery Days 41 and 42
smiles,measurement,setting,value
CC(C)C[C@H]1C(=O)O[C@H](C)C(=O)N(C)[C@@H](CC(C)(C)F)C(=O)O[C@H](Cc2ccc(C3CCOCC3)cc2)C(=O)N(C)[C@@H](CC(C)C)C(=O)O[C@H](C)C(=O)N(C)[C@@H](CC(C)(C)F)C(=O)O[C@H](Cc2ccc(C3CCOCC3)cc2)C(=O)N1C [compound 8800],% Red,"Dirofilaria immitis; 8800 5 mg/kg Days 1, 15, 30, 50 Di L3 per NSG mouse, Table 14, vs Control",100%
same,"% Rec, Mean","Dirofilaria immitis; 8800 5 mg/kg Days 1, 15, 30, 50 Di L3 per NSG mouse, recovery Days 41 to 42, Table 14, group mean",0%
same,% Rec,"Dirofilaria immitis; 8800 5 mg/kg Days 1, 15, 30, 50 Di L3 per NSG mouse, recovery Days 41 to 42, Table 14, individual mice",0%
same,% Red,"Dirofilaria immitis; NSG mice, 50 Di L3, 2x (1 mg/kg) at Days 1 and 30, recovery Days 41 to 43",38%
same,% Red,"Dirofilaria immitis; NSG mice, 50 Di L3 Day 0, 1 mg/kg EMO or 8800 on Days 30 and 60, recovery Days 83 and 84",43%
same,% Red (percent reduction in percent of Di recovered compared to control),"Dirofilaria immitis; NSG mice, 50 Di L3 Day 0, 1 mg/kg on Day 30, recovery Days 41 to 43",23%
same,% Red,"Dirofilaria immitis; Table 9, NSG mice, 50 Di L3, 1 mg/kg on Days 1, 15, and 30, recovery Days 41 to 43",73%
same,Mean % Rec,"Dirofilaria immitis; Table 9, group mean, NSG mice, 50 Di L3, 1 mg/kg on Days 1, 15, and 30, recovery Days 41 to 43",9%
same,% Rec,"Dirofilaria immitis; Table 9, individual mouse, NSG mice, 50 Di L3, 1 mg/kg on Days 1, 15, and 30, recovery Days 41 to 43",8% (3×) and 10% and 28% and 16% and 0%
same,% Red,"Dirofilaria immitis; Table 11, NSG mice, 50 Di L3, 0.3 mg/kg on Days 1, 15, and 30, recovery Days 41 to 42",0%
same,% Red,"Dirofilaria immitis; Table 11, NSG mice, 50 Di L3, 1 mg/kg on Days 1, 15, and 30, recovery Days 41 to 42",71%
same,Mean % Rec,"Dirofilaria immitis; Table 11, group mean, NSG mice, 50 Di L3, 0.3 mg/kg on Days 1, 15, and 30, recovery Days 41 to 42",26%
same,Mean % Rec,"Dirofilaria immitis; Table 11, group mean, NSG mice, 50 Di L3, 1 mg/kg on Days 1, 15, and 30, recovery Days 41 to 42",7%
same,% Rec,"Dirofilaria immitis; Table 11, individual mouse, NSG mice, 50 Di L3, 0.3 mg/kg on Days 1, 15, and 30, recovery Days 41 to 42",16% (2×) and 36% (3×) and 14%
same,% Rec,"Dirofilaria immitis; Table 11, individual mouse, NSG mice, 50 Di L3, 1 mg/kg on Days 1, 15, and 30, recovery Days 41 to 42",4% (2×) and 2% and 16% and 8% and 6%
same,Mean % Rec,"Dirofilaria immitis; group mean, NSG mice, 50 Di L3, 2x (1 mg/kg) at Days 1 and 30, recovery Days 41 to 43",21%
same,Mean % Rec,"Dirofilaria immitis; group mean, NSG mice, 50 Di L3 Day 0, 1 mg/kg EMO or 8800 on Days 30 and 60, recovery Days 83 and 84",8%
same,Mean % Rec,"Dirofilaria immitis; group mean, NSG mice, 50 Di L3 Day 0, 1 mg/kg on Day 30, recovery Days 41 to 43",31%
same,Survival,"Dirofilaria immitis; in vivo, 5 mg/kg",0
same,"Survival, Mean","Dirofilaria immitis; in vivo, 5 mg/kg",0
same,% Rec,"Dirofilaria immitis; individual mouse, NSG mice, 50 Di L3, 2x (1 mg/kg) at Days 1 and 30, recovery Days 41 to 43",22% and 16% and 12% and 26% and 20% and 32%
same,% Rec (percent of the original 50 Di recovered),"Dirofilaria immitis; individual mouse, NSG mice, 50 Di L3 Day 0, 1 mg/kg EMO or 8800 on Days 30 and 60, recovery Days 83 and 84",14% and 4% (2×) and 10% and 12% and 6%
same,% Rec (percent of the original 50 Di recovered),"Dirofilaria immitis; individual mouse, NSG mice, 50 Di L3 Day 0, 1 mg/kg on Day 30, recovery Days 41 to 43",24% (3×) and 36% and 28% and 52%
same,"% Rec, Mean","[1]; 8800 1 mg/kg Days 1, 15, 30, 50 Di L3 (UC Strain) per NSG mouse, recovery Days 41 to 43",10%
same,% Rec,"[1]; 8800 1 mg/kg Days 1, 15, 30, 50 Di L3 (UC Strain) per NSG mouse, recovery Days 41 to 43, individual mice, 1 mg/kg",10% (2×) and 14% and 16% and 4% and 6% and 12%
same,% Red,"[1]; 8800 1 mg/kg Days 1, 15, 30, 50 Di L3 (UC Strain) per NSG mouse, vs Control",73%
same,"% Rec, Mean","[1]; 8800 2 mg/kg Days 1, 15, 30, 50 Di L3 (UC Strain) per NSG mouse, recovery Days 41 to 43",2%
same,% Rec,"[1]; 8800 2 mg/kg Days 1, 15, 30, 50 Di L3 (UC Strain) per NSG mouse, recovery Days 41 to 43, individual mice, 2 mg/kg",2% (3×) and 0% (2×) and 6% and 4%
same,% Red,"[1]; 8800 2 mg/kg Days 1, 15, 30, 50 Di L3 (UC Strain) per NSG mouse, vs Control",94%
same,% Red,[1]; [2],65%
same,% Red,[1]; [3],94%
same,% Red,[1]; [4],81%
same,Mean % Rec,[1]; [2],12%
same,Mean % Rec,[1]; [3],2%
same,Mean % Rec,[1]; [4],7%
same,Mean Survival,[1]; 1 mg/kg,6 and 4
same,"Survival, Mean",[1]; 1 mg/kg,5
same,Mean Survival,[1]; 2 mg/kg,1
same,"Survival, Mean",[1]; 2 mg/kg,1
same,% Rec,"[1]; individual mouse, NSG mice, 50 Di L3 Merial worms, 1 mg/kg on Days 1, 15, and 30, recovery Days 41 to 43, 1 mg/kg",0% (2×) and 12% (3×) and 8% and 32% and 16%
same,% Rec,"[1]; individual mouse, NSG mice, 50 Di L3 UC strain, High Dose 2 mg/kg on Days 1, 15, and 30, recovery Days 41 and 42, 2 mg/kg",2% (3×) and 0% (3×) and 8%
same,% Rec,"[1]; individual mouse, NSG mice, 50 Di L3 UC strain, Normal Dose 1 mg/kg on Days 1, 15, and 30, recovery Days 41 and 42, 1 mg/kg",6% (2×) and 4% and 2% and 8% and 10% and 14%

# Reference: patent US20200011856A1, “Method for Determining the Effectiveness of Treatment for the Prevention of Heartworm Disease” (priority 2017, published 2020)
